Assay results: patent publication US10940139B2, “Compounds that interact with the Ras superfamily for the treatment of cancers, inflammatory diseases, rasopathies, and fibrotic disease” (Shy Therapeutics LLC, priority 2017, dated 2021)

Molecular target: KRas G12D/Q61H double mutant (Homo sapiens (Human), UniProt P01116, G12D/Q61H)
Test: Ras GTP binding domain inhibition assay (labeled GTP)
Conditions: 20 μM compound; KRas G12D/Q61H double mutant; read-out: % Inhibition at 20 μM of K-Ras mutant and wild-type protein, KRas G12D Q61H
How it was run: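 Fluorescence read-out of Cy3-/Cy5-GTP remaining bound to nickel-immobilized His-KRas after washes. Protein was coated overnight at 4° C, then exposed to compound for 3 h at room temperature before a 45 min labeled-GTP incubation.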

Sequence of KRas G12D/Q61H double mutant (P01116-2 other isoform, or with tags, fused parts or gaps G12D/Q61H): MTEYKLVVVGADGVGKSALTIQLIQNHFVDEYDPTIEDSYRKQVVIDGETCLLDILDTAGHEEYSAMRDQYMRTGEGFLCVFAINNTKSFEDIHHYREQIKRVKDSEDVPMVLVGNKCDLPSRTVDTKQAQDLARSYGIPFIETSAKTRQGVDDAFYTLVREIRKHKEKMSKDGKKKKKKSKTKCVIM

| SMILES | inhibition at 20 µM [%] |
| --- | --- |
| Cc1ccc(C(=O)Oc2cccc(C3CN(C(=O)c4ccc(C)s4)CCO3)c2)s1 (stereo not drawn) | 1 to 25 |
| CCC(C)(C)c1ccc(Oc2ccc(NC(=O)NS(=O)(=O)c3ccc(C)cc3)cc2)cc1 | 51 to 75 |
| O=C(COCC(F)(F)F)Nc1nnc(-c2ccccn2)[nH]1 | 25 to 50 |
| COCCCN(C(=O)c1ccc(-n2nc(C)c(Cl)c2C)cc1)S(=O)(=O)c1ccc(OC)cc1 | 25 to 50 |
| CN(Cc1nnc(-c2ccc(F)cc2)o1)CC12CC3CC(CC(C3)C1)C2 | 25 to 50 |
| O=C(Cc1ccccc1[N+](=O)[O-])N1CCCC1C1CCCC1 (stereo not drawn) | 1 to 25 |
| CC(C)(C)NS(=O)(=O)c1ccccc1CNC(=O)CCC1CCCCC1 | 25 to 50 |
| Cc1ccc(CC(C#N)c2c(C#N)c(N)nc(N3CCCCC3)c2C#N)cc1 (stereo not drawn) | 1 to 25 |
| NC(=O)c1cc(-c2csc(N3CCCCC3)n2)ccc1O | 1 to 25 |
| Cc1ccc(CN(Cc2ccco2)C(=O)C(c2ccccc2)c2ccccc2)o1 | 25 to 50 |

Continued, values first:

| inhibition at 20 µM [%] | SMILES |
| --- | --- |
| 25 to 50 | Cc1occc1-c1nnc(SCC2CCN(C(=O)OCc3ccccc3)CC2)o1 |
| 25 to 50 | COc1ccc(C(=O)NC(C)Cc2ccc(-c3ccccc3)cc2)c(OC)c1OC (stereo not drawn) |
| 25 to 50 | CCOCCOc1ccc(Br)cc1CNCc1cccc(N2CC=CC2)c1 |
| 25 to 50 | Cc1cc(C)c(S(=O)(=O)Nc2ccc(Oc3ccccc3C#N)nc2)c(C)c1 |
| 25 to 50 | Cc1ccc(OCCn2c(CN3CCCCC3)nc3ccccc32)cc1C |
| 51 to 75 | O=C(c1ccc(-c2ccccc2F)o1)N(Cc1ccco1)C1CCCC1 |
| 1 to 25 | COCCN(Cc1ccccc1)CC(O)COC(c1ccc(OC)cc1)c1ccc(OC)cc1 (stereo not drawn) |
| 25 to 50 | COc1ccc(CCNc2nc(-c3cc(C)n(-c4ncn[nH]4)c3C)cs2)cc1OC |
| 25 to 50 | COC(=O)c1c(CN(C)Cc2nccn2CC(F)(F)F)nc2ccccc2c1-c1ccccc1 |
| 1 to 25 | CCNC(=O)COc1ccc(CN2CCN(C3CC3)c3ccc(F)cc32)cc1 |
| 25 to 50 | CCOc1ccc(Nc2ccc([N+](=O)[O-])cc2S(=O)(=O)N(CC)CC)cc1 |
| 25 to 50 | CC(=O)c1ccccc1OCCN(c1nccs1)S(=O)(=O)c1ccccc1 |
| 25 to 50 | CCOc1ccc(CN(C)CC(=O)Nc2ccc3c(c2)c2ccccc2n3CC)cc1OC |
| 25 to 50 | COc1ccc(Cl)cc1CN(c1ccccc1F)S(=O)(=O)C(C)C |

Same assay, conditions: 20 μM compound; read-out: % Inhibition at 20 μM KRas G12D Q61H

| SMILES | inhibition at 20 µM [%] |
| --- | --- |
| CC(c1nc(N)nc(N(C)C)n1)N1CCN(c2cccc(C(F)(F)F)c2)CC1 (stereo not drawn) | 1 to 25 |
| CCc1cc(NC(C)C(=O)N2CCOCC2)nc(-c2ccccn2)n1 (stereo not drawn) | 1 to 25 |
| CC1CN(c2nc(-c3ccccn3)nc3c2CCC3)C(C)CN1C (stereo not drawn) | 25 to 50 |
| O=C(COCC1CC1)Nc1nnc(-c2ccccn2)[nH]1 | 25 to 50 |
| Cc1[nH]c(-c2ccccn2)nc(=O)c1C | 25 to 50 |
| O=C(CCc1nc2ccccc2[nH]1)Nc1nnc(-c2ccccn2)[nH]1 | 51 to 75 |
| CN(Cc1ccc(C(=O)NCC(F)(F)F)cc1)Cc1ccc([N+](=O)[O-])cc1 | 25 to 50 |
| COCCOCCN(C)C(=O)c1csc2c(O)nc(N)nc12 | 1 to 25 |
| O=C1COc2cc(C(=O)Nc3nc(-c4ccccn4)cs3)ccc2N1 | 25 to 50 |
| CC(C)Cc1nc(CN(C)CC(=O)Nc2ccc(Cl)c(S(=O)(=O)N3CCOCC3)c2)no1 | 1 to 25 |
| c1ccc(-c2csc3nc(-c4ccccn4)nc(NCCN4CCOCC4)c23)cc1 | 25 to 50 |
| O=C(Nc1nc(-c2ccccn2)cs1)c1ccc(=O)[nH]c1 | 25 to 50 |
| Nc1nc(O)c2scc(C(=O)NCCc3cccnc3)c2n1 [drawing 2670] | 1 to 25 |
| O=c1[nH]c(-c2ncccn2)nc2ccc(-c3cccc(C(F)(F)F)c3)cc12 | 25 to 50 |
| O=C(c1csc2c(O)nc(-c3ccccn3)nc12)N1CCNC(c2ccccc2)C1 (stereo not drawn) | 25 to 50 |
| Cc1cc(O)nc(-c2ccccn2)n1 | 25 to 50 |
| N#Cc1ccc(CC(=O)Nc2nc(-c3ccccn3)nc3sccc23)cc1 [drawing 2817] | 1 to 25 |

| SMILES | inhibition at 20 µM [%] |
| --- | --- |
| CC(c1nc(C(C)(C)C)no1)N(C)CC12CC3CC(CC(C3)C1)C2 (stereo not drawn) | 25 to 50 |
| CC(C)Cc1cc(C(=O)Nc2cc(-c3ccncc3)nn2C)[nH]n1 | 1 to 25 |
| CS(=O)(=O)CCCC(=O)N1CCCc2c(O)nc(-c3ccccn3)nc21 [drawing 2650] | 51 to 75 |
| C=CCCOC(C)C(=O)Nc1nnc(-c2ccccn2)[nH]1 (stereo not drawn) | 25 to 50 |
| O=c1[nH]c(-c2ccccn2)nc2[nH]nnc12 | 25 to 50 |
| O=c1[nH]c(-c2cc(OCC(F)F)ccn2)nc2cc(F)ccc12 | 51 to 75 |
| Cc1noc(CNc2cc(C(F)(F)F)ccc2N2CCCC2)n1 | 25 to 50 |
| CN(CCc1ccncc1)C(=O)c1csc2c(O)nc(-c3ccccn3)nc12 [drawing 2688] | 25 to 50 |
| O=C(Nc1nnc(-c2ccccn2)[nH]1)c1cccc(Nc2ncccn2)c1 | 1 to 25 |
| Clc1csc2nc(-c3ccccn3)nc(N3CCOCC3)c12 [drawing 2707] | 1 to 25 |
| Cc1nc(-c2ccccn2)[nH]c(=O)c1CC(=O)NC1CCCCCCC1 | 51 to 75 |
| O=C(c1csc2c(O)nc(-c3ccccn3)nc12)N1CCN(c2ccccc2F)CC1 [drawing 2721] | 25 to 50 |
| O=C(c1csc(-c2ncccn2)n1)N1CCC(c2ccc(O)cc2)CC1 | 1 to 25 |
| CC(=O)N1CCC(Nc2nc(-c3ccccn3)nc3c2CCC3)C1 (stereo not drawn) | 25 to 50 |
| Cc1c(C(=O)Nc2nnc(-c3ccccn3)[nH]2)cnn1-c1ccc(C(F)(F)F)cn1 | 25 to 50 |
| COC(=O)CCN(Cc1cc(Br)cc(C(F)(F)F)c1)C1CCOCC1 | 1 to 25 |

Continued, values first:

| inhibition at 20 µM [%] | SMILES |
| --- | --- |
| 1 to 25 | CN(Cc1ccc(OCc2ccccn2)cc1)Cc1ccccc1OC(F)(F)F |
| 25 to 50 | O=C(c1csc2c(O)nc(-c3ccccn3)nc12)N1CCN(c2cccc(Cl)c2)CC1 [drawing 2719] |
| 25 to 50 | Cc1cccc(C)c1OCCn1c(CN2CCCCC2)nc2ccccc21 |
| 1 to 25 | CN(c1ccccc1)c1ccccc1NCc1nnnn1-c1ccccc1 |
| 1 to 25 | Fc1ccccc1-c1csc(C2CN(Cc3ccccc3)CCO2)n1 (stereo not drawn) |
| 1 to 25 | CCN(CC(=O)Nc1ccccc1OC)Cc1coc(-c2cccs2)n1 |
| 25 to 50 | CCn1c(SCc2csc(-c3cccc(OC)c3OC)n2)nc2cc(S(N)(=O)=O)ccc21 |
| 1 to 25 | Cc1ccc(C)c(OCC(O)CN(c2nccs2)S(=O)(=O)c2ccccc2)c1 (stereo not drawn) |
| 25 to 50 | CCN(CCNC(=O)c1cc(-c2cccnc2)on1)c1cccc(C)c1 |
| 25 to 50 | COc1ccc(CN2CCN(C(=O)c3csc4c(O)nc(-c5ccccn5)nc34)CC2)cc1 [drawing 2725] |
| 25 to 50 | CCCCN(C(=O)c1cnn(-c2ccccc2)n1)c1ccccc1 |
| 25 to 50 | Cc1cc(N2CCN(c3cccc(C(F)(F)F)c3)CC2)n2ncnc2n1 |
| 25 to 50 | COc1ccc(CCNC(=O)c2cc(S(=O)(=O)C3CCCCCC3)ccc2OC)cc1OC |
| 25 to 50 | CCCN(CC1CC1)S(=O)(=O)Oc1cccc(C(=O)NCc2ccccc2)c1 |
| 25 to 50 | Cc1ccccc1CC(=O)Nc1nnc(-c2ccccn2)[nH]1 |
| 25 to 50 | Cc1c(-c2ccccc2)sc2[nH]c(-c3ccccn3)nc(=O)c12 |
| 25 to 50 | c1ccc(OCc2nc(CNCCn3cccn3)cs2)cc1 |
| 1 to 25 | COc1ccc(OCCn2c(CN3CCCCC3)nc3ccccc32)cc1 |
| 25 to 50 | O=c1[nH]c(-c2ccccn2)nc2ccccc12 |
| 25 to 50 | O=C(Nc1nc(-c2ccccn2)cs1)c1cccc(-n2cnnn2)c1 |
| 1 to 25 | O=c1[nH]c(-c2ccnc(Oc3ccccc3Cl)c2)nc2ccsc12 |
| 1 to 25 | Cc1nc(CNc2ccccc2Oc2cccc(F)c2)no1 |
| 25 to 50 | CSc1nnc(CN(Cc2ccccc2)Cc2ccccc2)s1 |

Same assay, conditions: 20 μM; read-out: KRas G12D Q61H % Inh.

| SMILES | inhibition at 20 µM [%] |
| --- | --- |
| Cc1c(C(=O)Nc2nnc(-c3ccccn3)[nH]2)oc2c1C(=O)CCC2 [drawing 2477] | 51 to 75 |
| Cc1c(C(=O)Nc2nnc(-c3ccccn3)[nH]2)oc2ccccc12 [drawing 2465] | 51 to 75 |
| O=C(Nc1nnc(-c2ccccn2)[nH]1)C1COc2ccccc2C1 (stereo not drawn) [drawing 2490] | 51 to 75 |

The remaining lines, values ahead:

| inhibition at 20 µM [%] | SMILES |
| --- | --- |
| 51 to 75 | O=C(Cc1ccc(F)cc1)Nc1nnc(-c2ccccn2)[nH]1 [drawing 2515] |
| 51 to 75 | O=C(Nc1nnc(-c2ccccn2)[nH]1)c1ccc(=O)n(CCOc2ccccc2)n1 [drawing 2553] |
| 25 to 50 | Cc1nc(-c2ccccn2)nc(O)c1CCC(=O)NC1CCc2ccccc21 (stereo not drawn) [drawing 2597] |
| 51 to 75 | O=C(Cc1cccc(F)c1)Nc1nnc(-c2ccccn2)[nH]1 [drawing 2497] |
| 51 to 75 | O=C(Nc1nc(-c2ccccn2)cs1)C1CC(=O)N(c2ccc3c(c2)OCCO3)C1 (stereo not drawn) [drawing 2575] |
| 51 to 75 | O=C(CCn1ccc2ccccc21)Nc1nnc(-c2ccccn2)[nH]1 [drawing 2462] |
| 51 to 75 | COc1ccc(-c2csc3[nH]c(-c4ccccn4)nc(=O)c23)cc1 [drawing 2582] |
| 51 to 75 | N#Cc1cccc(OCC(=O)Nc2nnc(-c3ccccn3)[nH]2)c1 [drawing 2523] |
| 51 to 75 | CC(COCc1ccccc1)C(=O)Nc1nnc(-c2ccccn2)[nH]1 (stereo not drawn) [drawing 2517] |
| 51 to 75 | Cc1sc2[nH]c(-c3ccccn3)nc(=O)c2c1-c1ccccc1 [drawing 2586] |
| 51 to 75 | COc1cccc(COCC(=O)Nc2nnc(-c3ccccn3)[nH]2)c1 [drawing 2534] |
| 51 to 75 | Cc1ccc(CC(=O)Nc2nnc(-c3ccccn3)[nH]2)cc1 [drawing 2473] |
| 51 to 75 | COc1ccccc1-c1cc(C(=O)Nc2nnc(-c3ccccn3)[nH]2)no1 [drawing 2539] |
